System: tumor/cancer cells
Test: in vitro anti-cancer tests, overall statements
Type: cell-based, human
Conditions: summary of in vitro results
From the text: The cancer cell growth inhibition test was primarily used to detect the effect of a candidate drug on cancer cell proliferation. The working principle involved therein is the ability of viable cells to shift alamarBlue (Biosource, USA) from its originally non-fluorescent oxidized state to a reduced form (fluorescent, red) having fluorescence via metabolic reaction. According to the fluorescent data result generated by the alamarBlue reagent thus obtained, the proliferation of the viable cells and cell activity can be quantified for detection.

C=C(C)[C@@H]1CC[C@]2(C(=O)O)CC[C@]3(C)[C@H](CC[C@@H]4[C@@]5(C)CC[C@H](O)C(C)(C)[C@@H]5CC[C@]43C)[C@@H]12 [TSB-1, betulinic acid]
effect of inhibiting tumor/cancer cell growth (in words): may not be as effective as products TSB-2 to TSB-8
